The source of these data is PMC9496453 (2022).

In test [1] the test system is OTC5 (DNA, aptamer) GACGACATTCCGTTGATCTCTCCCTTTTGGGTTGGTGTCGTC
Kind of test: ITC. As to conditions: 2 mM Mg2+; 10 mM Tris pH 8.3; 0.2 μM at pH 6.0 (10 mM MES).

For test [2] the test system is unchanged. In words: intrinsic fluorescence enhancement titration. The settings on record: 50 mM NaCl, 2 mM MgCl2, 10 mM Tris HCl pH 8.3, binding lost without Mg2+.

Regarding `CN(C)[C@@H]1C(=O)C(C(N)=O)=C(O)[C@@]2(O)C(=O)C3=C(O)c4c(O)cccc4[C@@](C)(O)[C@H]3[C@H](O)[C@@H]12`, the KD (usually the equilibrium constant for the complex coming apart) in test [1] is 30 nM; in test [2] (0.14 µM at acidic pH (printed 6.3)), 60 nM.
As to `C[C@H]1c2cccc(O)c2C(=O)C2=C(O)[C@]3(O)C(=O)C(C(N)=O)=C(O)[C@@H](N(C)C)[C@@H]3[C@@H](O)[C@@H]21`, in test [2] (0.39 µM at pH 6.0), the KD amounted to 240 nM.
In the case of `CN(C)[C@@H]1C(=O)C(C(N)=O)=C(O)[C@@]2(O)C(=O)C3=C(O)c4c(O)cccc4[C@@](C)(O)[C@H]3C[C@@H]12`, the KD in test [2] (0.36 µM at acidic pH (printed 6.3)) amounted to 160 nM.
